Experimental data from patent publication US20210154202A1, “SYNTHESIS OF DENTIMOL, AN ANTIGLAUCOMA DRUG” (Virginia Commonwealth University, priority 2018, published 2021).

Assays:
NIH 3T3 fibroblasts = assay: Cytotoxicity study, WST-1 cell proliferation assay; format: cell-based; conditions: no concentration stated
Procedure: Cytotoxicity study. NIH 3T3 fibroblasts were seeded in a 96-well plate at 5000 cells per well and allowed 24 h to attach. The cells were maintained in DMEM medium supplemented with 10% serum, streptomycin […] and penicillin (100 U/mL) at 37° C. in 95% air/5% CO2. Upon the removal of the medium, the cells were incubated with fresh DMEM medium (control) or fresh medium containing various amounts of OTM, OTM-PEG, or DenTimol (n=8) for 24 h. Cell viability relative to untreated cells was determined using the WST-1 cell proliferation assay.

[1] = system: rats (cornea, ciliary body, retina); assay: In vivo safety assessment, ocular tolerance and histology after once-daily dosing for seven days
Procedure: In vivo safety assessment. To assess in vivo ocular tolerance, rats received OTM, timolol, or DenTimol (2×5 μL, 0.5% w/v OTM equivalent) in the right eye once daily for seven days. At the conclusion of the experiment, the rats were euthanized. The eyes were enucleated and immediately fixed in Davidson's solution, and 5 μm sections prepared for histological evaluation.

[2] = Water solubility / hydrophobicity as stated; format: physicochemical
[3] = Ex vivo corneal permeation study, Franz diffusion cells; format: in vitro ADME; conditions: rabbit cornea, 37° C., 3.7 mM OTM equivalent donor
Procedure: Ex vivo corneal permeation study. Corneal permeability was determined using Franz diffusion cells (PermeGear, Hellertown, Pa.). Corneas were extracted from fresh rabbit eyes and placed immediately into diffusion cells with the endothelial surface facing the acceptor chamber and the epithelial surface facing the donor chamber. The acceptor chamber was filled with 5 mL of glutathione buffered Ringer's solution, and the donor chamber with 100 μL of a solution containing 1 mg of DenTimol (3.7 mM OTM equivalent). For comparison, permeation of OTM and OTM-PEG across the cornea were also tested at the same OTM equivalent concentration. The diffusion cells were placed in a water bath at 37° C. At various time points, 250 μL samples were withdrawn from the acceptor chamber, and drug concentrations were measured using the reverse phase HPLC system.

[4] = delivered as a topical solution; cited from earlier work

Drug permeated through the cornea in 4 h [3] [%]	Structure (SMILES)	Toxicity of OTM (stated) (NIH 3T3 fibroblasts)	Histology (H&E) of cornea, ciliary body and retina after repeated dosing [1]	Water solubility / hydrophobicity [2]	Period after a dose within therapeutic concentration window in the anterior chamber [4] [h]	Share of total drug reaching the target organ with each dose [4]
	C1CN(c2nsnc2OC[C@@H]2CO2)CCO1 [OTM, (S)-4-[4-(Oxiranylmethoxy)-1,2,5-thiadiazol-3-yl]morpholine]	non-toxic	did not alter the structures of the cornea, ciliary body, and retina	highly hydrophobic		
3.5	CC(C)(C)NC[C@H](O)COc1nsnc1N1CCOCC1 [timolol]				4 to 5	about 5%
